PubChem BioAssay AID2060620 (Molecular Pharmacology Branch, DTP, NCI, 2025)

Test system: 328373-195-R-J1-PDC complex spheroids, viability % test/control
Assay: Anticancer human tumor 328373-195-R-J1-PDC patient-derived head and neck squamous carcinoma cell line growth inhibition [CLK]
Conditions: for IC50: curve of first compound; for viability, T/C: stronger effect = lower value; active = viability on the fitted dose curve at most 10% of control; inactive = the rest
Summary of the method: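 Multi-cell-type spheroids combined patient-derived tumor cells with HUVEC endothelial cells and human mesenchymal stem cells. Paired agents were dosed in half-log steps down from about clinical Cmax, or from 10 microM where Cmax was unknown.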

[1] = second compound 0.0316 µM, first compound 0.0316 µM
[2] = second compound 0.0316 µM, first compound 0.1 µM
[3] = second compound 0.1 µM, first compound 0.0316 µM
[4] = second compound 0.1 µM, first compound 0.1 µM
[5] = second compound 0.316 µM, first compound 0.0316 µM
[6] = second compound 0.316 µM, first compound 0.1 µM
[7] = second compound 1 µM, first compound 0.0316 µM
[8] = second compound 1 µM, first compound 0.1 µM
[9] = second compound 3.16 µM, first compound 0.0316 µM
[10] = second compound 3.16 µM, first compound 0.1 µM
[11] = second compound 10 µM, first compound 0.0316 µM
[12] = second compound 10 µM, first compound 0.1 µM
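Note: spheroids exposed to the agents for 7 days.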

CC(C)CC(NC(=O)C(Cc1ccccc1)NC(=O)c1cnccn1)B(O)O (stereo unspecified) + CNC(=O)c1ccc(Nc2nc(OC3CCCC3)c3c(-c4ccc5nc(C)oc5c4)c[nH]c3n2)c(OC)c1
active: viability, T/C (second compound 0.0316 µM, first compound 0.003 µM) 3.15% | viability, T/C (second compound 0.0316 µM, first compound 0.00949 µM) 0.27% | viability, T/C (second compound 0.0316 µM, first compound 0.03 µM) 0.18% | viability, T/C (second compound 0.0316 µM, first compound 0.0949 µM) 0.2% | viability, T/C (second compound 0.0316 µM, first compound 0.3 µM) 0.32% | viability, T/C (second compound 0.1 µM, first compound 0.003 µM) 4.91% | viability, T/C (second compound 0.1 µM, first compound 0.00949 µM) 0.98% | viability, T/C (second compound 0.1 µM, first compound 0.03 µM) 0.14% | viability, T/C (second compound 0.1 µM, first compound 0.0949 µM) 0.16% | viability, T/C (second compound 0.1 µM, first compound 0.3 µM) 1.45% | viability, T/C (second compound 0.316 µM, first compound 0.003 µM) 5.82% | viability, T/C (second compound 0.316 µM, first compound 0.00949 µM) 0.17% | viability, T/C (second compound 0.316 µM, first compound 0.03 µM) 0.11% | viability, T/C (second compound 0.316 µM, first compound 0.0949 µM) 0.14% | viability, T/C (second compound 0.316 µM, first compound 0.3 µM) 0.13% | viability, T/C (second compound 1 µM, first compound 0.000949 µM) 9.47% | viability, T/C (second compound 1 µM, first compound 0.003 µM) 4.37% | viability, T/C (second compound 1 µM, first compound 0.00949 µM) 0.14% | viability, T/C (second compound 1 µM, first compound 0.03 µM) 0.08% | viability, T/C (second compound 1 µM, first compound 0.0949 µM) 0.12% | viability, T/C (second compound 1 µM, first compound 0.3 µM) 1.52% | viability, T/C (second compound 3.16 µM, first compound 0.003 µM) 3.42% | viability, T/C (second compound 3.16 µM, first compound 0.00949 µM) 0.15% | viability, T/C (second compound 3.16 µM, first compound 0.03 µM) 0.09% | viability, T/C (second compound 3.16 µM, first compound 0.0949 µM) 0.24% | viability, T/C (second compound 3.16 µM, first compound 0.3 µM) 0.19% | viability, T/C (second compound 10 µM, first compound 0.003 µM) 2.54% | viability, T/C (second compound 10 µM, first compound 0.00949 µM) 0.2% | viability, T/C (second compound 10 µM, first compound 0.03 µM) 0.64% | viability, T/C (second compound 10 µM, first compound 0.0949 µM) 0.3% | viability, T/C (second compound 10 µM, first compound 0.3 µM) 0.6%
inactive: viability, T/C (second compound 0.0316 µM, first compound 0.000949 µM) 75.7% | viability, T/C (second compound 0.1 µM, first compound 0.000949 µM) 12.8% | viability, T/C (second compound 0.316 µM, first compound 0.000949 µM) 10.9% | viability, T/C (second compound 3.16 µM, first compound 0.000949 µM) 12.4% | viability, T/C (second compound 10 µM, first compound 0.000949 µM) 14.2%
< 0.949 nM: IC50 (second compound 0.1 µM) | IC50 (second compound 0.316 µM) | IC50 (second compound 1 µM) | IC50 (second compound 3.16 µM) | IC50 (second compound 10 µM)
1.43 nM: IC50 (second compound 0.0316 µM)

Cn1ncnc1[C@H]1c2n[nH]c(=O)c3cc(F)cc(c23)N[C@@H]1c1ccc(F)cc1 + CNC(=O)c1ccc(Nc2nc(OC3CCCC3)c3c(-c4ccc5nc(C)oc5c4)c[nH]c3n2)c(OC)c1
< 0.316 nM: IC50 (second compound 0.1 µM) | IC50 (second compound 0.316 µM) | IC50 (second compound 1 µM) | IC50 (second compound 3.16 µM) | IC50 (second compound 10 µM)
active: viability, T/C (second compound 0.316 µM, first compound 0.000316 µM) 9.25% | viability, T/C (second compound 0.316 µM, first compound 0.001 µM) 10.3% | viability, T/C (second compound 0.316 µM, first compound 0.00316 µM) 8.72% | viability, T/C (second compound 0.316 µM, first compound 0.01 µM) 10.3% | viability, T/C [5] 9.93% | viability, T/C [6] 10.4% | viability, T/C (second compound 1 µM, first compound 0.000316 µM) 9.2% | viability, T/C (second compound 1 µM, first compound 0.001 µM) 9.13% | viability, T/C (second compound 1 µM, first compound 0.00316 µM) 9.32% | viability, T/C (second compound 1 µM, first compound 0.01 µM) 11.8% | viability, T/C [7] 9.07% | viability, T/C [8] 8.36% | viability, T/C (second compound 3.16 µM, first compound 0.000316 µM) 9.59% | viability, T/C (second compound 3.16 µM, first compound 0.001 µM) 9.4% | viability, T/C (second compound 3.16 µM, first compound 0.00316 µM) 9.78% | viability, T/C (second compound 3.16 µM, first compound 0.01 µM) 10% | viability, T/C [9] 11% | viability, T/C [10] 9.49%
40.6 nM: IC50 (second compound 0.0316 µM)
inactive: viability, T/C (second compound 0.0316 µM, first compound 0.000316 µM) 51.9% | viability, T/C (second compound 0.0316 µM, first compound 0.001 µM) 51.6% | viability, T/C (second compound 0.0316 µM, first compound 0.00316 µM) 47.8% | viability, T/C (second compound 0.0316 µM, first compound 0.01 µM) 66.8% | viability, T/C [1] 51.7% | viability, T/C [2] 40.6% | viability, T/C (second compound 0.1 µM, first compound 0.000316 µM) 9.58% | viability, T/C (second compound 0.1 µM, first compound 0.001 µM) 9.68% | viability, T/C (second compound 0.1 µM, first compound 0.00316 µM) 9.49% | viability, T/C (second compound 0.1 µM, first compound 0.01 µM) 11.1% | viability, T/C [3] 9.25% | viability, T/C [4] 12.2% | viability, T/C (second compound 10 µM, first compound 0.000316 µM) 11.2% | viability, T/C (second compound 10 µM, first compound 0.001 µM) 11.1% | viability, T/C (second compound 10 µM, first compound 0.00316 µM) 8.71% | viability, T/C (second compound 10 µM, first compound 0.01 µM) 11.8% | viability, T/C [11] 12.4% | viability, T/C [12] 8.72%

O=C(c1cc(Cc2n[nH]c(=O)c3ccccc23)ccc1F)N1CCN(C(=O)C2CC2)CC1 + CNC(=O)c1ccc(Nc2nc(OC3CCCC3)c3c(-c4ccc5nc(C)oc5c4)c[nH]c3n2)c(OC)c1
inactive: viability, T/C [1] 69.1% | viability, T/C [2] 62.5% | viability, T/C (second compound 0.0316 µM, first compound 0.316 µM) 62.2% | viability, T/C (second compound 0.0316 µM, first compound 1 µM) 59.1% | viability, T/C (second compound 0.0316 µM, first compound 3.16 µM) 70.7% | viability, T/C (second compound 0.0316 µM, first compound 10 µM) 52.3% | viability, T/C [3] 13.8% | viability, T/C [4] 13.1% | viability, T/C (second compound 0.1 µM, first compound 0.316 µM) 9.71% | viability, T/C (second compound 0.1 µM, first compound 1 µM) 12.3% | viability, T/C (second compound 0.1 µM, first compound 3.16 µM) 13.5% | viability, T/C (second compound 0.1 µM, first compound 10 µM) 11.3% | viability, T/C [5] 10.8% | viability, T/C [6] 11.1% | viability, T/C (second compound 0.316 µM, first compound 0.316 µM) 11.7% | viability, T/C (second compound 0.316 µM, first compound 1 µM) 9.06% | viability, T/C (second compound 0.316 µM, first compound 3.16 µM) 11.2% | viability, T/C (second compound 0.316 µM, first compound 10 µM) 10.3% | viability, T/C [7] 10.3% | viability, T/C [8] 10% | viability, T/C (second compound 1 µM, first compound 0.316 µM) 9.23% | viability, T/C (second compound 1 µM, first compound 1 µM) 12% | viability, T/C (second compound 1 µM, first compound 3.16 µM) 12.6% | viability, T/C (second compound 1 µM, first compound 10 µM) 9.55% | viability, T/C [9] 11.4% | viability, T/C [10] 11.2% | viability, T/C (second compound 3.16 µM, first compound 0.316 µM) 10% | viability, T/C (second compound 3.16 µM, first compound 1 µM) 11.5% | viability, T/C (second compound 3.16 µM, first compound 3.16 µM) 14.2% | viability, T/C (second compound 3.16 µM, first compound 10 µM) 9.92% | viability, T/C [11] 11.5% | viability, T/C [12] 13.2% | viability, T/C (second compound 10 µM, first compound 0.316 µM) 13.2% | viability, T/C (second compound 10 µM, first compound 1 µM) 9.97% | viability, T/C (second compound 10 µM, first compound 3.16 µM) 15.8% | viability, T/C (second compound 10 µM, first compound 10 µM) 12.4%
< 31.6 nM: IC50 (second compound 0.1 µM) | IC50 (second compound 0.316 µM) | IC50 (second compound 1 µM) | IC50 (second compound 3.16 µM) | IC50 (second compound 10 µM)
> 10000 nM: IC50 (second compound 0.0316 µM)
